Measurements taken from publication PMC4976367, “Dimethyl fumarate blocks pro-inflammatory cytokine production via inhibition of TLR induced M1 and K63 ubiquitin chain formation” (Scientific Reports, 2016).
Structures can show the parent of a compound that is named as a salt.

Columns and labels:
Type in all cases: biochemical
Ubc13 = molecular target: T1, Ubc13 (Homo sapiens, UniProt P61088); assay: MALDI-TOF intact mass shift (covalent adduct, +[…] Da); IC50 from E2 ubiquitin loading assay with purified UBE1 and E2
T1 construct: gene UBE2N; recombinant Ubc13
T1 sequence (P61088 1-152): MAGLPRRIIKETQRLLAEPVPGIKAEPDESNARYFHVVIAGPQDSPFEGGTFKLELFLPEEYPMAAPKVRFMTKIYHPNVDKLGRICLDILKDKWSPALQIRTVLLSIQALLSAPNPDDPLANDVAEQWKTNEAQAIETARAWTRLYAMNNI

Ube2W = Ube2W (Homo sapiens, UniProt Q96B02); assay: E2 ubiquitin loading assay, panel of […] E2s at two fixed DMF concentrations
Sequence of Ube2W (Q96B02 whole entry, one chain of several): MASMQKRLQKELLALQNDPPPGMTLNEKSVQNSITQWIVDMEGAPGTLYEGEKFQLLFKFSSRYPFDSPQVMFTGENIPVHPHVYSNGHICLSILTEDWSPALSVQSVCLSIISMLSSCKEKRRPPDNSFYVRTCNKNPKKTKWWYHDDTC

Ube2T = molecular target: T2, Ube2T (Homo sapiens, UniProt Q9NPD8); assay: as above
T2 sequence (Q9NPD8 1-197): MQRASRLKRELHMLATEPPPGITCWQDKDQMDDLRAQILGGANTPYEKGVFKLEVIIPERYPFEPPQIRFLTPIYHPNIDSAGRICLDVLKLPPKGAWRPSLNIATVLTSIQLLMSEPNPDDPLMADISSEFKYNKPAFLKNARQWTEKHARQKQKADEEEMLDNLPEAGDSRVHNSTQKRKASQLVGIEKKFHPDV

UbcH7 = molecular target: T3, UbcH7 (Homo sapiens, UniProt P68036); assay: MALDI-TOF intact mass shift (covalent adducts, +[…] and +[…] Da); IC50 from E2 ubiquitin loading assay with purified UBE1 and E2
T3 construct: gene UBE2L3; recombinant UbcH7
T3 sequence (P68036 whole entry, one chain of several): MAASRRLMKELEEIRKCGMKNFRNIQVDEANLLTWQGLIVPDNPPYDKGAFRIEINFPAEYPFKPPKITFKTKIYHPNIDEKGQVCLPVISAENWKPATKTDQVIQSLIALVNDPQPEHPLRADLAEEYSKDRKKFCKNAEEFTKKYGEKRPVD

Ube2R1 = molecular target: T4, Ube2R1 (Homo sapiens, UniProt P49427); assay: E2 ubiquitin loading assay, panel of […] E2s at two fixed DMF concentrations
T4 construct: gene CDC34
T4 sequence (P49427 1-236): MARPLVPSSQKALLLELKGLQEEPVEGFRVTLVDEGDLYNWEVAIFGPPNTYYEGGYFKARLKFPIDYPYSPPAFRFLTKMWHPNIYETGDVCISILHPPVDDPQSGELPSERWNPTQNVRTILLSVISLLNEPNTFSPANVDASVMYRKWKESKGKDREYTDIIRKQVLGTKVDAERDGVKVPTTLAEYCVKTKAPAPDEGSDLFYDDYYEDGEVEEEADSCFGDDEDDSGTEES

Ube2S = molecular target: T5, Ube2S (Homo sapiens, UniProt Q16763); assay: as above
T5 sequence (Q16763 1-222): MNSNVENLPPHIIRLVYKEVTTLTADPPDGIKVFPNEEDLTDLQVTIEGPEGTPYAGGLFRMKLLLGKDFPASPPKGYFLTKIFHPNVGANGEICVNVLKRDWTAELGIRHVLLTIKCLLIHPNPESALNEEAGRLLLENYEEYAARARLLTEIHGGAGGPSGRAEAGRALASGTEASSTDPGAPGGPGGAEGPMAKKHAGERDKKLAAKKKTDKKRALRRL
T5 sequence (P22314 2-1058 partner): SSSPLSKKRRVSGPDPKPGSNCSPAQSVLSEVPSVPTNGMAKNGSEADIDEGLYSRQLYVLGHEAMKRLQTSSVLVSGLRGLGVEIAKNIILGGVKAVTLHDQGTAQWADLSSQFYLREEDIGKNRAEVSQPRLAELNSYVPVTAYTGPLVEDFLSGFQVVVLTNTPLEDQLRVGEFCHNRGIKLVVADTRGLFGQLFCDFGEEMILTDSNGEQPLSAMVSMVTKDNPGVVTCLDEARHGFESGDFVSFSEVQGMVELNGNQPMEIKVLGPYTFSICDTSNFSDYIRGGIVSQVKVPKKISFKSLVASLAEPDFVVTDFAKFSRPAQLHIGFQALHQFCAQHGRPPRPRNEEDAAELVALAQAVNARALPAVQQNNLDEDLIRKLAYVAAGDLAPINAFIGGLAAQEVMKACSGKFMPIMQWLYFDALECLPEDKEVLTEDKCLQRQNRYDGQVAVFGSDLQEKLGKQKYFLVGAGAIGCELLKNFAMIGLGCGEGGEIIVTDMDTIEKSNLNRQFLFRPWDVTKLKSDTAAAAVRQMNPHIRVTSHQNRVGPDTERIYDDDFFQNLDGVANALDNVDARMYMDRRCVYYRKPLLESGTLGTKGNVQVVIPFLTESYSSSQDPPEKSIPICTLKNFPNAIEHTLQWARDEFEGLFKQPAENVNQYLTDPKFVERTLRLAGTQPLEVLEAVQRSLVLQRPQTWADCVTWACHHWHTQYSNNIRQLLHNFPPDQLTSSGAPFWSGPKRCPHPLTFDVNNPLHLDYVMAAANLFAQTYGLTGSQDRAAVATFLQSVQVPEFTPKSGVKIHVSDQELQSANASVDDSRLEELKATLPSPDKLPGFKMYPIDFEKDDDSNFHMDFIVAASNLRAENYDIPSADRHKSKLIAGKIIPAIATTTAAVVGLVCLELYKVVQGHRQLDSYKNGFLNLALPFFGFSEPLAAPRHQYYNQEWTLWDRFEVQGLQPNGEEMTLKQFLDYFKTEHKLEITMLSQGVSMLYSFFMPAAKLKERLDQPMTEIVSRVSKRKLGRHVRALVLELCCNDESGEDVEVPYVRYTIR

SMILES: COC(=O)/C=C/C(=O)OC [Dimethyl fumarate]
- IC50 (Ubc13): 10 to 20 µM
- E2 ubiquitin loading assay, panel of 24 E2s at two fixed DMF concentrations (Ube2W): UbcH7, Ube2W, Ube2T, Ube2S and Ube2R1 being most strongly inhibited
- E2 ubiquitin loading assay, panel of 24 E2s at two fixed DMF concentrations (Ube2T): UbcH7, Ube2W, Ube2T, Ube2S and Ube2R1 being most strongly inhibited
- IC50 (UbcH7): < 10 µM
- E2 ubiquitin loading assay, panel of 24 E2s at two fixed DMF concentrations (Ube2R1): UbcH7, Ube2W, Ube2T, Ube2S and Ube2R1 being most strongly inhibited
- E2 ubiquitin loading assay, panel of 24 E2s at two fixed DMF concentrations (Ube2S): UbcH7, Ube2W, Ube2T, Ube2S and Ube2R1 being most strongly inhibited
